Where two headings read alike, the source gives them in different places.
Tests used:
[1] = tested on: NCI-60 tumor cell line collection; test: NCI-60 in vitro drug sensitivity testing, whole panel; type: cell-based, human; settings: for GI50: Homo sapiens, all 60 NCI-60 cell lines
Excerpt: The NCI-60 tumor cell line collection is a panel of 60 diverse human cancer cell lines.
(§1) Cell lines used in this study were obtained from the National Cancer Institute Developmental Therapeutics program (NCI DTP) and were maintained in RPMI 1640 media (Invitrogen, Grand Island, N.Y.) containing 10% Fetal Bovine Serum (ATCC, Manassas, Va.). Cell lines were used within six months of receipt from the NCI DTP, abrogating the need for reauthentication.
(§2) 14, 2010 and Aug. 9, 2010.

MCF7 = test: NCI-60 in vitro drug sensitivity testing (SRB); type: cell-based; settings: Homo sapiens, MCF7, read-out: GDC-0941 GI50
Excerpt: as §1

OVCAR-4 = test: NCI-60 in vitro drug sensitivity testing (SRB); type: cell-based; settings: Homo sapiens, OVCAR-4, read-out: GDC-0941 GI50
Excerpt: as §1

MDA-MB-231 = test: NCI-60 in vitro drug sensitivity testing (SRB); type: cell-based; settings: Homo sapiens, MDA-MB-231, read-out: GDC-0941 GI50
Excerpt: as §1

BT-549 = test: NCI-60 in vitro drug sensitivity testing (SRB); type: cell-based; settings: Homo sapiens, BT-549, read-out: GDC-0941 GI50
Excerpt: as §1, §2

SK-MEL-5 = test: NCI-60 in vitro drug sensitivity testing (SRB); type: cell-based; settings: Homo sapiens, SK-MEL-5, read-out: GDC-0941 GI50
Excerpt: as §1, §2

CCRF-CEM = test: NCI-60 in vitro drug sensitivity testing (SRB); type: cell-based; settings: Homo sapiens, read-out: GDC-0941 GI50
Excerpt: as §1, §2

HCC-2998 = test: NCI-60 in vitro drug sensitivity testing (SRB); type: cell-based; settings: Homo sapiens, read-out: GDC-0941 GI50
Excerpt: as §1, §2

MOLT-4 = test: NCI-60 in vitro drug sensitivity testing (SRB); type: cell-based; settings: Homo sapiens, MOLT-4, read-out: GDC-0941 GI50
Excerpt: as §1, §2

U251 = test: NCI-60 in vitro drug sensitivity testing (SRB); type: cell-based; settings: Homo sapiens, U-251, read-out: GDC-0941 GI50
Excerpt: as §1, §2

HCT-116 = test: NCI-60 in vitro drug sensitivity testing (SRB); type: cell-based; settings: Homo sapiens, HCT-116, read-out: GDC-0941 GI50
Excerpt: as §1, §2

M14 = test: NCI-60 in vitro drug sensitivity testing (SRB); type: cell-based; settings: Homo sapiens, M14, read-out: GDC-0941 GI50
Excerpt: as §1, §2

OVCAR-3 = test: NCI-60 in vitro drug sensitivity testing (SRB); type: cell-based; settings: Homo sapiens, OVCAR-3, read-out: GDC-0941 GI50
Excerpt: as §1, §2

NCI-H226 = test: NCI-60 in vitro drug sensitivity testing (SRB); type: cell-based; settings: Homo sapiens, NCI-H226, read-out: GDC-0941 GI50
Excerpt: as §1, §2

NCI-H23 = test: NCI-60 in vitro drug sensitivity testing (SRB); type: cell-based; settings: Homo sapiens, NCI-H23, read-out: GDC-0941 GI50
Excerpt: as §1, §2

EKVX = test: NCI-60 in vitro drug sensitivity testing (SRB); type: cell-based; settings: Homo sapiens, read-out: GDC-0941 GI50
Excerpt: as §1, §2

NCI-H522 = test: NCI-60 in vitro drug sensitivity testing (SRB); type: cell-based; settings: Homo sapiens, NCI-H522, read-out: GDC-0941 GI50
Excerpt: as §1, §2

SF-295 = test: NCI-60 in vitro drug sensitivity testing (SRB); type: cell-based; settings: Homo sapiens, SF-295, read-out: GDC-0941 GI50
Excerpt: as §1, §2

A549/ATCC = test: NCI-60 in vitro drug sensitivity testing (SRB); type: cell-based; settings: Homo sapiens, read-out: GDC-0941 GI50
Excerpt: as §1, §2

NCI/ADR-RES = test: NCI-60 in vitro drug sensitivity testing (SRB); type: cell-based; settings: Homo sapiens, read-out: GDC-0941 GI50
Excerpt: as §1, §2

SR = test: NCI-60 in vitro drug sensitivity testing (SRB); type: cell-based; settings: Homo sapiens, read-out: GDC-0941 GI50
Excerpt: as §1, §2

ACHN = test: NCI-60 in vitro drug sensitivity testing (SRB); type: cell-based; settings: Homo sapiens, read-out: GDC-0941 GI50
Excerpt: as §1, §2

HOP-62 = test: NCI-60 in vitro drug sensitivity testing (SRB); type: cell-based; settings: Homo sapiens, HOP-62, read-out: GDC-0941 GI50
Excerpt: as §1, §2

HOP-92 = test: NCI-60 in vitro drug sensitivity testing (SRB); type: cell-based; settings: Homo sapiens, HOP-92, read-out: GDC-0941 GI50
Excerpt: as §1, §2

HCT-15 = test: NCI-60 in vitro drug sensitivity testing (SRB); type: cell-based; settings: Homo sapiens, HCT-15, read-out: GDC-0941 GI50
Excerpt: as §1, §2

K-562 = test: NCI-60 in vitro drug sensitivity testing (SRB); type: cell-based; settings: Homo sapiens, K562, read-out: GDC-0941 GI50
Excerpt: as §1, §2

DU-145 = test: NCI-60 in vitro drug sensitivity testing (SRB); type: cell-based; settings: Homo sapiens, DU-145, read-out: GDC-0941 GI50
Excerpt: as §1, §2

UACC-257 = test: NCI-60 in vitro drug sensitivity testing (SRB); type: cell-based; settings: Homo sapiens, UACC-257, read-out: GDC-0941 GI50
Excerpt: as §1, §2

SF-539 = test: NCI-60 in vitro drug sensitivity testing (SRB); type: cell-based; settings: Homo sapiens, SF-539, read-out: GDC-0941 GI50
Excerpt: as §1, §2

SMILES: CS(=O)(=O)N1CCN(Cc2cc3nc(-c4cccc5[nH]ncc45)nc(N4CCOCC4)c3s2)CC1 [GDC-0941]
- GI50 ([1]; read-out: GI50 values, range over the panel): 0.011 to 3.8 µM
- GI50 ([1]; read-out: Mean GI50 for all cell lines): 0.66 µM
- Anti-proliferative activity across the panel ([1]; nine tumor types represented in the NCI-60 cell line panel): broad anti-proliferative activity
- GI50 (MCF7): 0.055 µM
- GI50 (OVCAR-4): 3.8 µM
- GI50 (MDA-MB-231): 1.48 µM
- GI50 (BT-549): 0.032 µM
- GI50 (SK-MEL-5): 1.29 µM
- GI50 (CCRF-CEM): 2.34 µM
- GI50 (HCC-2998): 1.32 µM
- GI50 (MOLT-4): 0.155 µM
- GI50 (U251): 1.05 µM
- GI50 (HCT-116): 0.692 µM
- GI50 (M14): 0.871 µM
- GI50 (OVCAR-3): 0.126 µM
- GI50 (NCI-H226): 1.23 µM
- GI50 (NCI-H23): 2.29 µM
- GI50 (EKVX): 0.195 µM
- GI50 (NCI-H522): 0.372 µM
- GI50 (SF-295): 0.11 µM
- GI50 (A549/ATCC): 0.251 µM
- GI50 (NCI/ADR-RES): 2.04 µM
- GI50 (SR): 1.29 µM
- GI50 (ACHN): 0.162 µM
- GI50 (HOP-62): 0.363 µM
- GI50 (HOP-92): 0.083 µM
- GI50 (HCT-15): 0.209 µM
- GI50 (K-562): 3.47 µM
- GI50 (DU-145): 0.355 µM
- GI50 (UACC-257): 0.078 µM
- GI50 (SF-539): 0.251 µM

— patent US20130274127A1, “GENE EXPRESSION MARKERS FOR PREDICTION OF RESPONSE TO PHOSPHOINOSITIDE 3-KINASE INHIBITORS” (GENOMIC HEALTH, INC., priority 2012, published 2013)
